Assay results published in patent US9730929B2, “Substituted aminoimidazopyridazines” (BAYER INTELLECTUAL PROPERTY GMBH, priority 2011, dated 2017).

Each molecule was assayed against T1, human full-length MKNK1 (Homo sapiens (Human), UniProt Q9BUB5, T344D) (assay: MKNK1 kinase assay (TR-FRET, 10 μM ATP)). Details: ATP final conc. 10 μM; 15 min preincubation.
Assay type: biochemical
Description: MKNK1-inhibitory activity of compounds of the present invention was quantified employing the MKNK1 TR-FRET assay as described in the following paragraphs.
As substrate for the kinase reaction the biotinylated peptide biotin-Ahx-[…] (C-terminus in amide form) was used which can be purchased e.g. form the company Biosyntan (Berlin-Buch, Germany).
(§1) For the assay 50 nL of a 100 fold concentrated solution of the test compound in DMSO was pipetted into a black low volume 384 well microtiter plate (Greiner Bio-One, Frickenhausen, Germany), 2 μL of a solution of MKNK1 in aqueous assay buffer [50 mM HEPES pH 7.5, 5 mM magnesium chloride, 1.0 mM dithiothreitol, 0.005% (v/v) Nonidet-P40 (Sigma)] was added and the mixture was incubated for 15 min at 22° C. to allow pre-binding of the test compounds to the enzyme before the start of the kinase reaction. Then the kinase reaction was started by the addition of 3 μL of a solution of adenosine-tri-phosphate (ATP, 16.7 μM=>final conc. in the 5 μL assay volume is 10 μM) and substrate (0.1 μM=>final conc. in the 5 μL assay volume is 0.06 μM) in assay buffer and the resulting mixture was incubated for a reaction time of 45 min at 22° C. The concentration of MKNK1 was adjusted depending of the activity of the enzyme lot and was chosen appropriate to have the assay in the linear range, typical concentrations were in the range of 0.05 μg/ml. The reaction was stopped by the addition of 5 μL of a solution of TR-FRET detection reagents (5 nM streptavidine-XL665 [Cisbio Bioassays, Codolet, France] and 1 nM anti-ribosomal protein 56 (pSer236)-antibody from Invitrogen [#44921G] and 1 nM LANCE EU-W1024 labeled ProteinG [Perkin-Elmer, product no. AD0071]) in an aqueous EDTA-solution (100 mM EDTA, 0.1% (w/v) bovine serum albumin in 50 mM HEPES pH 7.5).
The resulting mixture was incubated for 1 h at 22° C. to allow the formation of complex between the phosphorylated biotinylated peptide and the detection reagents. Subsequently the amount of phosphorylated substrate was evaluated by measurement of the resonance energy transfer from the Eu-chelate to the streptavidine-XL. Therefore, the fluorescence emissions at 620 nm and 665 nm after excitation at 350 nm were measured in a TR-FRET reader, e.g. a Rubystar (BMG Labtechnologies, Offenburg, Germany) or a Viewlux (Perkin-Elmer). The ratio of the emissions at 665 nm and at 622 nm was taken as the measure for the amount of phosphorylated substrate.

T1 sequence (Q9BUB5 other isoform, or with tags, fused parts or gaps T344D): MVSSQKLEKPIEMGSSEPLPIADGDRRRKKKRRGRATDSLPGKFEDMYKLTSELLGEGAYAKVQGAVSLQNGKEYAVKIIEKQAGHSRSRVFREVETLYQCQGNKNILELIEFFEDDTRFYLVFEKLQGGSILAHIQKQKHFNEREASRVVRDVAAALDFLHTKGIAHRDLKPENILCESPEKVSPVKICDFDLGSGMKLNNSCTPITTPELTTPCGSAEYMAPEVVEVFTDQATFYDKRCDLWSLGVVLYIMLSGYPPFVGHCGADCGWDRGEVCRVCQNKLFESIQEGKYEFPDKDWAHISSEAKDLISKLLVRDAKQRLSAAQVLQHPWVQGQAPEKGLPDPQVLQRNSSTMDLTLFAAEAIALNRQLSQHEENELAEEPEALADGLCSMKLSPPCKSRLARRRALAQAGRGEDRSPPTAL

Row | SMILES | IC50
1 | CN(CC(O)c1ccccc1)c1ccc2ncc(-c3cc4ccccc4o3)n2n1 (stereo not shown) [Example 10, 2-{[3-(1-Benzofuran-2-yl)imidazo[1,2-b]pyridazin-6-yl](methyl)amino}-1-phenylethanol] | 3 nM
2 | CN(C[C@H](O)c1cccc(O)c1)c1ccc2ncc(-c3cc4ccccc4o3)n2n1 [Example 3] | 1 nM
3 | CCN(CCO)c1ccc2ncc(-c3cc4ccccc4o3)n2n1 [Example 1] | 7 nM
4 | COc1cccc2oc(-c3cnc4ccc(N(C)C[C@H](O)c5cccc(O)c5)nn34)cc12 [Example 9, 3-[(1R)-1-Hydroxy-2-{[3-(4-methoxy-1-benzofuran-2-yl)imidazo[1,2-b]pyridazin-6-yl](methyl)amino}eth-yl]phenol] | 2 nM

These molecules were tested against T1, human full-length MKNK1 (assay: MKNK1 kinase high ATP assay (TR-FRET, 2 mM ATP)). Details: ATP final conc. 2 mM; 15 min preincubation.
Assay type: biochemical
Description: MKNK1-inhibitory activity at high ATP of compounds of the present invention after their preincubation with MKNK1 was quantified employing the TR-FRET-based MKNK1 high ATP assay as described in the following paragraphs.
As substrate for the kinase reaction the biotinylated peptide biotin-Ahx-[…] (C-terminus in amide form) was used, which can be purchased e.g. from the company Biosyntan (Berlin-Buch, Germany).
as §1, with “3.3 mM=>final” for “16.7 μM=>final”, “2 mM)” for “10 μM)”, “30” for “45”, “0.003 μg/mL.” for “0.05 μg/ml.”, “S6” for “56”, “4D0071])” for “AD0071])”
The resulting mixture was incubated for 1 h at 22° C. to allow the formation of complex between the phosphorylated biotinylated peptide and the detection reagents. Subsequently the amount of phosphorylated substrate was evaluated by measurement of the resonance energy transfer from the Eu-chelate to the streptavidine-XL.

Row | SMILES | IC50
5 | CN(CC(O)c1ccccc1)c1ccc2ncc(-c3cc4ccccc4o3)n2n1 (single isomer, unassigned; (-)) [Example 12, (−)-2-{[3-(1-Benzofuran-2-yl)imidazo[1,2-b]pyridazin-6-yl](methyl)amino}-1-phenylethanol] | 4 nM
6 | CC(C)CN(CC(O)c1ccccc1)c1ccc2ncc(-c3cc4ccccc4o3)n2n1 (stereo not shown) [Example 20, 2-{[3-(1-Benzofuran-2-yl)imidazo[1,2-b]pyridazin-6-yl](isobutyl)amino}-1-phenylethanol] | 48 nM
7 | CN(CC(O)c1ccccc1)c1ccc2ncc(-c3cc4ccccc4o3)n2n1 (stereo not shown) [Example 10, 2-{[3-(1-Benzofuran-2-yl)imidazo[1,2-b]pyridazin-6-yl](methyl)amino}-1-phenylethanol] | 4 nM
8 | CCOc1nccc2oc(-c3cnc4ccc(N(C)CC(O)c5ccccc5)nn34)cc12 (stereo not shown) [Example 25, 2-{[3-(4-Ethoxyfuro[3,2-c]pyridin-2-yl)imidazo[1,2-b]pyridazin-6-yl](methyl)amino}-1-phenylethanol] | 5 nM
9 | OC(CN(c1ccc2ncc(-c3cc4ccccc4o3)n2n1)C1CC1)c1ccccc1 (stereo not shown) [Example 16, 2-{[3-(1-Benzofuran-2-yl)imidazo[1,2-b]pyridazin-6-yl](cyclopropyl)amino}-1-phenylethanol] | 24 nM
10 | COc1nccc2oc(-c3cnc4ccc(N(C)CC(C)O)nn34)cc12 (stereo not shown) [Example 15, 1-{[3-(4-Methoxyfuro[3,2-c]pyridin-2-yl)imidazo[1,2-b]pyridazin-6-yl](methyl)amino}propan-2-ol] | 10 nM
11 | CC(C)N(CC(O)c1ccccc1)c1ccc2ncc(-c3cc4ccccc4o3)n2n1 (stereo not shown) [Example 21, 2-{[3-(1-Benzofuran-2-yl)imidazo[1,2-b]pyridazin-6-yl](isopropyl)amino}-1-phenylethanol] | 52 nM
12 | CC(CO)N(C)c1ccc2ncc(-c3cc4ccccc4o3)n2n1 (stereo not shown) [Example 19, 2-{[3-(1-Benzofuran-2-yl)imidazo[1,2-b]pyridazin-6-yl](methyl)amino}propan-1-ol] | 47 nM
13 | OC(CN(c1ccc2ncc(-c3cc4ccccc4o3)n2n1)C1CC1)c1ccc(F)cc1 (stereo not shown) [Example 18, 2-{[3-(1-Benzofuran-2-yl)imidazo[1,2-b]pyridazin-6-yl](cyclopropyl)amino}-1-(4-fluorophenyl)ethanol] | 42 nM
14 | CN(CC(O)c1ccccc1)c1ccc2ncc(-c3cc4ccccc4o3)n2n1 (single isomer, unassigned; (+)) [Example 13, (+)-2-{[3-(1-Benzofuran-2-yl)imidazo[1,2-b]pyridazin-6-yl](methyl)amino}-1-phenylethanol] | 24 nM
15 | CCN(CCO)c1ccc2ncc(-c3cc4ccccc4o3)n2n1 [Example 1] | 20 nM
16 | CC(O)CN(C)c1ccc2ncc(-c3cc4ccccc4o3)n2n1 (stereo not shown) [Example 14, 1-{[3-(1-Benzofuran-2-yl)imidazo[1,2-b]pyridazin-6-yl](methyl)amino}propan-2-ol] | 9 nM
17 | COc1nccc2oc(-c3cnc4ccc(N(C)C(C)CO)nn34)cc12 (stereo not shown) [Example 17, 2-{[3-(4-Methoxyfuro[3,2-c]pyridin-2-yl)imidazo[1,2-b]pyridazin-6-yl](methyl)amino}propan-1-ol] | 26 nM
18 | CN(CC(O)c1ccccc1)c1ccc2ncc(-c3cc4ccncc4o3)n2n1 (stereo not shown) [Example 22, 2-{[3-(Furo[2,3-c]pyridin-2-yl)imidazo[1,2-b]pyridazin-6-yl](methyl)amino}-1-phenylethanol] | 1 nM
19 | COc1cccc2oc(-c3cnc4ccc(N(C)C[C@H](O)c5cccc(O)c5)nn34)cc12 [Example 9, 3-[(1R)-1-Hydroxy-2-{[3-(4-methoxy-1-benzofuran-2-yl)imidazo[1,2-b]pyridazin-6-yl](methyl)amino}eth-yl]phenol] | 4 nM
20 | COc1nccc2oc(-c3cnc4ccc(N(C)CC(O)c5ccccc5)nn34)cc12 (stereo not shown) [Example 24, 2-{[3-(4-Methoxyfuro[3,2-c]pyridin-2-yl)imidazo[1,2-b]pyridazin-6-yl](methyl)amino}-1-phenylethanol] | 3 nM
21 | CN(CC(O)c1cccnc1)c1ccc2ncc(-c3cc4ccccc4o3)n2n1 (stereo not shown) [Example 11, 2-{[3-(1-Benzofuran-2-yl)imidazo[1,2-b]pyridazin-6-yl](methyl)amino}-1-(pyridin-3-yl)ethanol] | 2 nM
22 | CN(CC(O)c1ccccc1)c1ccc2ncc(-c3cc4cnccc4o3)n2n1 (stereo not shown) [Example 23, 2-{[3-(Furo[3,2-c]pyridin-2-yl)imidazo[1,2-b]pyridazin-6-yl](methyl)amino}-1-phenylethanol] | 1 nM
